Read-outs that look alike come from different tables or passages of the source. Where a SMILES comes first, the peptide text is derived from it. [ ]: non-standard residue; d: D form. Aib = CC(C)(N)C(=O)O
How the values were obtained:
[1] = Carbonyl-quenching activity towards HNE in vitro (residual HNE by reverse-phase chromatography); assay type: biochemical; conditions: for ACTIVITY (CARNOSINE UNIT) 1 h / HNE CONSUMPTION (%) 1 h: 1 h incubation; for ACTIVITY (CARNOSINE UNIT) 1 h / HNE CONSUMPTION (%) 1 h / ACTIVITY (CARNOSINE UNIT) 3 h / HNE CONSUMPTION (%) 3 h: HNE 50 μM, compound 1 mM, phosphate buffer 10 mM, pH 7.4, 37° C.; for ACTIVITY (CARNOSINE UNIT) 3 h / HNE CONSUMPTION (%) 3 h: 3 h incubation
Experimental: (§1) The pharmacological activity of the compounds according to the invention was determined in vitro by evaluating their carbonyl-quenching activity towards 4-hydroxy nonenal (HNE), which is known for its involvement in numerous disorders. Said activity was compared with that of L-carnosine, a compound known as a carbonyl quencher in vitro but having limited metabolic stability caused by serum carnosinase. The metabolic stability of a particularly interesting compound was also evaluated in human serum after 1 and 2 hours.
The activity was evaluated one and three hours after incubation, determining the residual HNE content by reverse-phase chromatography as previously described by Aldini G. et al. [Biochem Biophys Res Commun. 2002 Nov. 15; 298 (5):699-706]. The carbonyl-quenching activity is evaluated on the basis of the percentage of HNE reacted, compared with the HNE content in the absence of the molecule to be tested.

[2] = Stability in human serum (HPLC-MS recovery); assay type: in vitro ADME; conditions: 37° C.
Experimental: as §1
The samples taken from each matrix, suitably treated, were analysed by HPLC-MS, obtaining recovery after 1 h and 2 h.

[3] = reported in WO2011/080139, same test; cited from earlier work

Stability in plasma (% residual amount) 1 h ([2]; 1 h) [%]	Stability in plasma (% residual amount) 2 h ([2]; 2 h) [%]	SMILES	ACTIVITY (CARNOSINE UNIT) 1 h [1] [CARNOSINE UNIT]	HNE CONSUMPTION (%) 1 h [1] [%]	ACTIVITY (CARNOSINE UNIT) 3 h [1] [CARNOSINE UNIT]	HNE CONSUMPTION (%) 3 h [1] [%]	carbonyl-quenching activity, times greater than that of L-carnosine ([1]; see Table I) [times]	carbonyl-quenching activity, times greater than that of L-carnosine [3] [times]
		NCC1(C(=O)N[C@@H](Cc2c[nH]cn2)C(=O)O)CC1 [FLM-09-ACI]	0.81	13.70 ± 0.83	0.89	36.11 ± 2.87		
		CC(C)(CCN)C(=O)N[C@H](CO)Cc1c[nH]cn1 [FLM-13-OLO, (S)-4-amino-N-(1-hydroxy-3-(1H-imidazol-4-yl)propan-2-yl)-2,2-dimethylbutanamide]	0.62	10.54 ± 10.04	0.54	23.05 ± 12.28		
		NCC1(C(=O)N[C@H](CO)Cc2c[nH]cn2)CCC1 [FLM-10-OLO, (S)-1-(aminomethyl)-N-(1-hydroxy-3-(1H-imidazol-4-yl)propan-2-yl)cyclobutanecarboxamide]	2.82	47.68 ± 3.02	2.08	84.63 ± 2.70		
		NCC(F)(F)C(=O)N[C@H](CO)Cc1c[nH]cn1 [FLM-07-OLO, (S)-3-amino-2,2-difluoro-N-(1-hydroxy-3-(1H-imidazol-4-yl)propan-2-yl)propanamide]	1	17.07 ± 1.76	0.82	34.93 ± 0.58		
		NCC(F)(F)C(=O)N[C@@H](Cc1c[nH]cn1)C(=O)O [FLM-07-ACI, N-(3-amino-2,2-difluoropropanoyl)-L-histidine]	0.46	7.88 ± 5.41	0.69	29.42 ± 6.42		
		CC(C)(CCN)C(=O)N[C@@H](Cc1c[nH]cn1)C(=O)O [FLM-13-ACI, N-(4-amino-2,2-dimethylbutanoyl)-L-histidine]	0.69	11.77 ± 6.79	0.48	20.43 ± 7.94		
		NCC1(C(=O)N[C@@H](Cc2c[nH]cn2)C(=O)O)CCCCC1 [FLM-14-ACI]	1.71	29.10 ± 2.97	1.36	58.03 ± 2.37		
		NCC1(C(=O)N[C@@H](Cc2c[nH]cn2)C(=O)O)CCCC1 [FLM-11-ACI]	1.41	23.82 ± 1.55	1.31	53.54 ± 1.10		
		CC(C)(N)C(=O)N[C@H](CO)Cc1c[nH]cn1 [FLM-05-OLO, (S)-2-amino-N-(1-hydroxy-3-(1H-imidazol-4-yl)propan-2-yl)-2-methylpropanamide]	0.38	6.40 ± 1.72	0.45	19.44 ± 2.36		
		NCC1(C(=O)N[C@@H](Cc2c[nH]cn2)C(=O)O)CCC1 [FLM-10-ACI]	1.06	17.89 ± 1.97	1.11	45.04 ± 2.94		
101.78 ± 16.20	100.34 ± 9.46	CC(C)(CN)C(=O)N[C@H](CO)Cc1c[nH]cn1 [FLM-04-OLO, (S)-3-amino-N-(1-hydroxy-3-(1H-imidazol-4-yl)propan-2-yl)-2,2-dimethylpropanamide]	3.13	52.14 ± 5.56	2.00	86.47 ± 2.73	3.1	
		CC(C)(N)CC(=O)N[C@H](CO)Cc1c[nH]cn1 [FLM-02-OLO, (S)-3-amino-N-(1-hydroxy-3-(1H-imidazol-4-yl)propan-2-yl)-3,3-dimethylpropanamide]	0.25	4.09 ± 2.61	0.24	10.50 ± 2.24		
		NCCC(=O)N[C@@H](Cc1cnc[nH]1)C(=O)O [CARNOSINE, L-carnosine, reference compound]	1.00	17.05 ± 1.24	1.00	42.66 ± 0.89		
		CC(C)(N)CC(=O)N[C@@H](Cc1c[nH]cn1)C(=O)O [FLM-02-ACI, N-(3-amino-3,3-dimethylpropanoyl)-L-histidine]	0.02	0.40 ± 1.73	0.14	6.05 ± 1.66		
		NCC1(C(=O)N[C@H](CO)Cc2c[nH]cn2)CC1 [FLM-09-OLO, (S)-1-(aminomethyl)-N-(1-hydroxy-3-(1H-imidazol-4-yl)propan-2-yl)cyclopropanecarboxamide]	1.55	26.21 ± 1.04	1.45	59.09 ± 1.49		
		CC(C)(CN)C(=O)N[C@@H](Cc1c[nH]cn1)C(=O)O [FLM-04-ACI, N-(3-amino-2,2-dimethylpropanoyl)-L-histidine]	1.76	30.06 ± 4.68	1.51	64.44 ± 4.37		
		Cn1cncc1C[C@@H](CO)NC(=O)C(C)(C)CN [FLM-12-OLO, (S)-3-amino-N-(1-hydroxy-3-(1-methyl-1H-imidazol-5-yl)propan-2-yl)-2,2-dimethylpropanamide]	2.98	50.77 ± 3.84	1.64	70.08 ± 2.98		
		NCC1(C(=O)N[C@H](CO)Cc2c[nH]cn2)CCCC1 [FLM-11-OLO, (S)-1-(aminomethyl)-N-(1-hydroxy-3-(1H-imidazol-4-yl)propan-2-yl)cyclopentanecarboxamide]	2.82	47.56 ± 0.69	2.06	83.90 ± 0.33		
		NCCC(=O)N[C@H](CO)Cc1cnc[nH]1 [3-amino-N-[(1S)-2-hydroxy-1-(1H-imidazol-5-yl-methyl)ethyl]propanamide]						1.6
		NCC1(C(=O)N[C@H](CO)Cc2c[nH]cn2)CCCCC1 [FLM-14-OLO, (S)-1-(aminomethyl)-N-(1-hydroxy-3-(1H-imidazol-4-yl)propan-2-yl)cyclohexanecarboxamide]	2.84	48.36 ± 6.22	1.96	83.50 ± 5.85		
		CC(C)(CN)C(=O)N[C@@H](Cc1c[nH]cn1)C(=O)O [FLM-12-ACI, N-(3-amino-2,2-dimethylpropanoyl)-L-histidine]	1.58	27.07 ± 9.77	1.20	51.35 ± 9.22		
		CC(C)(N)C(=O)N[C@@H](Cc1c[nH]cn1)C(=O)O [FLM-05-ACI, N-(2-amino-2-methylpropanoyl)-L-histidine] (H-[Aib]-His-OH)	0.33	5.58 ± 7.50	0.37	15.84 ± 10.65		
